Reference: patent publication US10738028B2, “Spiro three-membered ring, spiro five-membered ring peptide deformylase inhibitor and use thereof in antibacteria and anti-tumor” (priority 2016, dated 2020)
≈ marks a conversion by molar mass, not a printed value. Where two headings read alike, the source gives them in different places.

Legend:
Type in all cases: cell-based
[1] = test system: Enterococcus faecalis (EFA); assay: MIC, two-fold agar dilution (CLSI), clinical isolates
In short: (§1)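 MIC values come from two-fold agar dilution run per CLSI antimicrobial susceptibility testing procedure.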

[2] = test system: Enterococcus faecium (EFM); assay: as above
In short: as §1

[3] = test system: Escherichia coli (including ESBLs, non-ESBLs); assay: as above
In short: as §1

[4] = test system: Moraxella catarrhalis (BCA); assay: as above; details: for MIC: Moraxella catarrhalis
In short: as §1

[5] = test system: Streptococcus pneoumoniae (SPN); assay: as above
In short: as §1

[6] = test system: methicillin-resistant Staphylococcus aureus (MRSA); assay: as above
In short: as §1

[7] = test system: methicillin-resistant Staphylococcus epidermidis (MRSE); assay: as above
In short: as §1

[8] = test system: methicillin-sensitive Staphylococcus aureus (MSSA); assay: as above
In short: as §1

[9] = test system: methicillin-sensitive Staphylococcus epidermidis (MSSE); assay: as above
In short: as §1

[10] = test system: HCT-116 colorectal cancer cell line; assay: CCK-8 proliferation inhibition; details: concentration of 30 μM, 72 hours, CCK-8
In short: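 Cells seeded at 2000 cells/well, cultured overnight at 37 °C, 5% CO2, then exposed to compound (DMSO; control 1‰ DMSO) for 72 h in McCoy's 5A with 10% newborn bovine serum. Viability read with 1:10 diluted CCK-8.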

[11] = test system: A549 lung cancer cell line; assay: CCK-8 proliferation inhibition; details: Homo sapiens, A549, 72 h, concentration of 30 μM
Text: (§2) 2. The present invention adopts the CCK-8 method to determine the proliferation inhibition effect of the spiro three-membered ring, spiro five-membered ring peptide deformylase inhibitor as described in Examples 1-80 against colorectal cancer cells, lung cancer cells, gastric cancer cells, liver cancer cells, and the like. […] The compound having the best activity synthesized in Example 64 was further tested for its inhibitory activity against other tumor cells including T cell leukemia, acute myeloid leukemia, cervical cancer, breast cancer, prostate cancer and osteosarcoma, and the like (see Table 7).
(§3) (1) HCT-116 colorectal cancer cell line, A549 lung cancer cell line, MGC-803 gastric cancer cell line, BEL-7402 liver cancer cell line, Jurkat T cell leukemia cell line, HL60 acute myeloid leukemia cell line, Hela cervical cancer cell line, MCF-7 breast cancer cell line, PC3 prostate cancer cell line and SAOS-2 osteosarcoma cell line were made into single cell suspension, 180 μL of which was inoculated into 96-well culture plate, which was cultured overnight in CO2 incubator (37° C., 5% CO2, 95% air).
(§4) (2) Each of the spiro three-membered ring, spiro five membered ring peptide deformylase inhibitors was dissolved in DMSO, and was further formulated into drug solution with required different final concentration using corresponding cell culture medium. The drug solutions were added to the above cells respectively (20 μL/well), with the control group added with 1‰ DMSO, and cultured in a CO2 incubator for 72 hours.
(§5) (3) After incubation for 72 hours, the culture solution was decanted, and 100 μL of 1:10 diluted CCK-8 solution was added.
(§6) Wherein, in step (1), the concentration of the single cell suspension was 2000 cells/well.
(§7) Wherein, in step (2), HCT-116 cells were cultured in McCoy's 5A medium (containing 10% newborn bovine serum, 1% double antibody); A549 and PC3 cells were cultured in F12 medium (containing 10% newborn bovine serum, 1% double antibody); MGC-803, BEL-7402, SAOS-2, Jurkat and HL60 cells were cultured in 1640 medium (containing 10% newborn bovine serum, 1% double antibody); and MCF-7 and Hela cells were cultured in DMEM high glucose medium (containing 10% newborn bovine serum, 1% double antibody).

[12] = test system: BEL-7402 liver cancer cell line; assay: CCK-8 proliferation inhibition; details: concentration of 30 μM
Text: as §2, §3, §4, §5, §6, §7

[13] = test system: MGC-803 gastric cancer cell line; assay: CCK-8 proliferation inhibition; details: Homo sapiens, MGC-803, 72 h, concentration of 30 μM
Text: as §2, §3, §4, §5, §6, §7

Compound: CCCC[C@H](CN(O)C=O)C(=O)N1CC2(CC2)C[C@H]1C(=O)Nc1nccs1 [Example 22]
- MIC (anti-bacterial activity) ([1]; strain EFA 15-1): 2 µg/mL (≈ 5.07 µM)
- MIC (anti-bacterial activity) ([1]; strain EFA 15-2): 2 µg/mL (≈ 5.07 µM)
- MIC (anti-bacterial activity) ([1]; strain EFA 15-3): 1 µg/mL (≈ 2.53 µM)
- MIC (anti-bacterial activity) ([1]; strain EFA 15-4): 2 µg/mL (≈ 5.07 µM)
- MIC (anti-bacterial activity) ([1]; strain EFA 15-5): 2 µg/mL (≈ 5.07 µM)
- MIC (anti-bacterial activity) ([1]; strain EFA 15-6): 2 µg/mL (≈ 5.07 µM)
- MIC (anti-bacterial activity) ([1]; strain EFA 15-9): 2 µg/mL (≈ 5.07 µM)
- MIC (anti-bacterial activity) ([2]; strain EFM 15-1): 0.5 µg/mL (≈ 1.27 µM)
- MIC (anti-bacterial activity) ([2]; strain EFM 15-2): 2 µg/mL (≈ 5.07 µM)
- MIC (anti-bacterial activity) ([2]; strain EFM 15-3): 0.25 µg/mL (≈ 0.634 µM)
- MIC (anti-bacterial activity) ([2]; strain EFM 15-4): 0.5 µg/mL (≈ 1.27 µM)
- MIC (anti-bacterial activity) ([2]; strain EFM 15-5): 0.25 µg/mL (≈ 0.634 µM)
- MIC (anti-bacterial activity) ([2]; strain EFM 15-6): 0.5 µg/mL (≈ 1.27 µM)
- MIC (anti-bacterial activity) ([3]; strain ECO+ 15-1): 16 µg/mL (≈ 40.6 µM)
- MIC (anti-bacterial activity) ([3]; strain ECO+ 15-2): 64 µg/mL (≈ 162 µM)
- MIC (anti-bacterial activity) ([3]; strain ECO+ 15-3): 32 µg/mL (≈ 81.1 µM)
- MIC (anti-bacterial activity) ([3]; strain ECO+ 15-4): 32 µg/mL (≈ 81.1 µM)
- MIC (anti-bacterial activity) ([3]; strain ECO− 15-1): 32 µg/mL (≈ 81.1 µM)
- MIC (anti-bacterial activity) ([3]; strain ECO− 15-2): 64 µg/mL (≈ 162 µM)
- MIC (anti-bacterial activity) ([3]; strain ECO− 15-3): 64 µg/mL (≈ 162 µM)
- MIC (anti-bacterial activity) ([3]; strain ECO− 15-4): 64 µg/mL (≈ 162 µM)
- MIC ([4]; 7 clinical isolates, range over strains, read-out: Moraxella catarrhalis (n = 7) MIC): 0.06 to 0.5 µg/mL (≈ 0.152 to 1.27 µM)
- MIC ([4]; lowest MIC reached, read-out: minimum inhibitory concentration against Moraxella catarrhalis, as low as): ≥ 0.06 µg/mL
- MIC (anti-bacterial activity) ([4]; strain BCA 14-1): 0.5 µg/mL (≈ 1.27 µM)
- MIC (anti-bacterial activity) ([4]; strain BCA 14-4): 0.25 µg/mL (≈ 0.634 µM)
- MIC (anti-bacterial activity) ([4]; strain BCA 14-5): 0.06 µg/mL (≈ 0.152 µM)
- MIC (anti-bacterial activity) ([4]; strain BCA 14-6): 0.06 µg/mL (≈ 0.152 µM)
- MIC (anti-bacterial activity) ([4]; strain BCA 14-7): 0.125 µg/mL (≈ 0.317 µM)
- MIC (anti-bacterial activity) ([4]; strain BCA 14-8): 0.5 µg/mL (≈ 1.27 µM)
- MIC (anti-bacterial activity) ([4]; strain BCA 14-10): 0.125 µg/mL (≈ 0.317 µM)
- MIC (anti-bacterial activity) ([5]; strain SPN 16-2): 2 µg/mL (≈ 5.07 µM)
- MIC (anti-bacterial activity) ([5]; strain SPN 16-4): 0.5 µg/mL (≈ 1.27 µM)
- MIC (anti-bacterial activity) ([6]; strain MRSA 15-1): 0.06 µg/mL (≈ 0.152 µM)
- MIC (anti-bacterial activity) ([6]; strain MRSA 15-2): 0.25 µg/mL (≈ 0.634 µM)
- MIC (anti-bacterial activity) ([6]; strain MRSA 15-3): 0.06 µg/mL (≈ 0.152 µM)
- MIC (anti-bacterial activity) ([6]; strain MRSA 15-4): 0.25 µg/mL (≈ 0.634 µM)
- MIC (anti-bacterial activity) ([7]; strain MRSE 15-1): 0.03 µg/mL (≈ 0.076 µM)
- MIC (anti-bacterial activity) ([7]; strain MRSE 15-2): 0.06 µg/mL (≈ 0.152 µM)
- MIC (anti-bacterial activity) ([7]; strain MRSE 15-3): 0.125 µg/mL (≈ 0.317 µM)
- MIC (anti-bacterial activity) ([7]; strain MRSE 15-7): 0.125 µg/mL (≈ 0.317 µM)
- MIC (anti-bacterial activity) ([8]; strain MSSA 15-3): 0.06 µg/mL (≈ 0.152 µM)
- MIC (anti-bacterial activity) ([8]; strain MSSA 15-4): 0.06 µg/mL (≈ 0.152 µM)
- MIC (anti-bacterial activity) ([8]; strain MSSA 15-5): 0.03 µg/mL (≈ 0.076 µM)
- MIC (anti-bacterial activity) ([8]; strain MSSA 15-6): 0.06 µg/mL (≈ 0.152 µM)
- MIC (anti-bacterial activity) ([9]; strain MSSE 15-3): 0.06 µg/mL (≈ 0.152 µM)
- MIC (anti-bacterial activity) ([9]; strain MSSE 15-4): 0.03 µg/mL (≈ 0.076 µM)
- MIC (anti-bacterial activity) ([9]; strain MSSE 15-5): 0.03 µg/mL (≈ 0.076 µM)
- MIC (anti-bacterial activity) ([9]; strain MSSE 15-6): 0.03 µg/mL (≈ 0.076 µM)
- inhibition at 30 µM ([10]; Homo sapiens, HCT-116, 72 h, read-out: HCT116 inhibition rate/%): > 50%
- HCT116 inhibition rate/% ([10]; 30 µM): 52%
- inhibition at 30 µM [11]: 21%
- inhibition at 30 µM ([12]; Homo sapiens, Bel-7402, 72 h): > 50%
- Inhibition of proliferation, Liver cancer BEL-7402 ([12]; 72 hours, 30 µM): 51%
- inhibition at 30 µM [13]: 14%
